Results on six compounds are retold here after patent US20230017539A1, “TRI-HETEROCYCLIC COMPOUND AS JAK INHIBITOR, AND USE THEREOF” (CHIA TAI TIANQING PHARMACEUTICAL GROUP CO., LTD., priority 2019, published 2023).

The target in test [1] is T1, JAK1(h) (Homo sapiens, UniProt P23458).
T1 construct: purchased Eurofins, UK
In words: In vitro activity assay of JAK1 kinase (radiometric, [γ-33P]-ATP). It is filed as biochemical. As to conditions: recombinant human JAK1, 40 min at room temperature. The procedure: (§1) Recombinant human JAK1, JAK2, JAK3 and Tyk2 […], and main instruments and reagents were all provided by Eurofins, UK.
(§2) Dilution of JAK2, JAK3 and TYK2: 20 mM 3-(N-morpholino)propanesulfonic acid (MOPS), 1 mM EDTA, 0.01% Brij-35.5% glycerol, 0.1% β-mercaptoethanol, and 1 mg/mL BSA; dilution of JAK1: 20 mM TRIS, 0.2 mM EDTA, 0.1% β-mercaptoethanol, and 0.01% Brij-35.5% glycerol. All compounds were prepared as 100% DMSO solutions, and the concentration was brought to 50 times the final assay concentration. A test compound was diluted with a 3-fold gradient, with a total of 9 final concentrations ranging from 10 μM to […]. The DMSO content in the assay reaction was 2%. The working stock solution of the compound was added into the assay wells as a first component of the reaction, and the remaining components were then added according to the protocol detailed for the assay below.
JAK1(h) was incubated with 20 mM Tris/HC pH 7.5, 0.2 mM EDTA, 500 μM MGEEPLYWSFPAKKK (SEQ ID NO: 1), 10 mM magnesium acetate and [γ-^33P]-ATP (the activity and concentration were tailored as required). The reaction was started by adding a Mg/ATP mixture, and terminated by adding 0.5% phosphoric acid after 40 min of incubation at room temperature. 10 μL of the reactant was then dotted on a P30 filter pad, washed three times with 0.425% phosphoric acid and once with methanol within 4 minutes, and dried, and scintillation counting was performed.
(§3) The IC50 results were obtained by analysis using XLFITS (formula 205) of IDBS company and detailed in Table 1.

The target of test [2] is T2, JAK3(h) (Homo sapiens, UniProt P52333).
T2 construct: purchased Eurofins, UK
T2 sequence (P52333 1-1124): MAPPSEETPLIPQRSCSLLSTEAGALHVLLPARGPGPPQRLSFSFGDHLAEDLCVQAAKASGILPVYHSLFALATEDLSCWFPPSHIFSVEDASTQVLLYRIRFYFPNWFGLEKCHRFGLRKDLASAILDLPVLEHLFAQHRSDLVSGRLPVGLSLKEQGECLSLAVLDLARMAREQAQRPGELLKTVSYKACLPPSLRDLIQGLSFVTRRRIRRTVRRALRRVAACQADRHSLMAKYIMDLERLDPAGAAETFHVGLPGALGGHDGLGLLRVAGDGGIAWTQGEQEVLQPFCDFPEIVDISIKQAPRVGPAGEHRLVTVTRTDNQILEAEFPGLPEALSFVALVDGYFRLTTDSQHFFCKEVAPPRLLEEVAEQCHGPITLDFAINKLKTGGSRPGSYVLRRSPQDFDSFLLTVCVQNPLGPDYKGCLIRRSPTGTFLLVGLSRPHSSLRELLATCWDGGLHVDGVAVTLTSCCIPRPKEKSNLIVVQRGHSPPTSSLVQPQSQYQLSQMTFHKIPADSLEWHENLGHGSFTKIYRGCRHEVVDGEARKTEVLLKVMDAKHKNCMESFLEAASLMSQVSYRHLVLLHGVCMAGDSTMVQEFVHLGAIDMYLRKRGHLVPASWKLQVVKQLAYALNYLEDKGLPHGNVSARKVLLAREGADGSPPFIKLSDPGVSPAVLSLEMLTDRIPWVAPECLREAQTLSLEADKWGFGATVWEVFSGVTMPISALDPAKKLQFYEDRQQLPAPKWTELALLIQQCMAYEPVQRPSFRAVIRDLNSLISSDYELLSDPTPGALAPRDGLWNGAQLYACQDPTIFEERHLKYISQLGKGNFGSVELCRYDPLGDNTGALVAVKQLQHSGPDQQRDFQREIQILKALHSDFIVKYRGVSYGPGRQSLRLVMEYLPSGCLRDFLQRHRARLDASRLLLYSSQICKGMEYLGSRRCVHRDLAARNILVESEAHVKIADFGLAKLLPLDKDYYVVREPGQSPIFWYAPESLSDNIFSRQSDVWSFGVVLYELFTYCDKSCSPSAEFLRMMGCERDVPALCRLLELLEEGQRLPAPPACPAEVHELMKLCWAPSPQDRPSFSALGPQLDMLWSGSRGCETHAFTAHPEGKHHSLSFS
In words: In vitro activity assay of JAK3 kinase (radiometric, [γ-33P]-ATP). The format is biochemical. As to conditions: recombinant human JAK3, 40 min at room temperature. As for the experimental part:
as §1, §2
JAK3(h) was incubated with 8 mM MOPS pH 7.0, 0.2 mM EDTA, 500 μM GGEEEEYFELVKKKK (SEQ ID NO: 3), 10 mM magnesium acetate and [γ-^33P]-ATP (the activity and concentration were tailored as required). The reaction was started by adding a Mg/ATP mixture, and terminated by adding 0.5% phosphoric acid after 40 min of incubation at room temperature. 10 μL of the reactant was then dotted on a P30 filter pad, washed three times with 0.425% phosphoric acid and once with methanol within 4 minutes, and dried, and scintillation counting was performed.
as §3

The target in test [3] is T3, TYK2(h) (Homo sapiens, UniProt P29597).
T3 construct: purchased Eurofins, UK
T3 sequence (P29597 whole entry): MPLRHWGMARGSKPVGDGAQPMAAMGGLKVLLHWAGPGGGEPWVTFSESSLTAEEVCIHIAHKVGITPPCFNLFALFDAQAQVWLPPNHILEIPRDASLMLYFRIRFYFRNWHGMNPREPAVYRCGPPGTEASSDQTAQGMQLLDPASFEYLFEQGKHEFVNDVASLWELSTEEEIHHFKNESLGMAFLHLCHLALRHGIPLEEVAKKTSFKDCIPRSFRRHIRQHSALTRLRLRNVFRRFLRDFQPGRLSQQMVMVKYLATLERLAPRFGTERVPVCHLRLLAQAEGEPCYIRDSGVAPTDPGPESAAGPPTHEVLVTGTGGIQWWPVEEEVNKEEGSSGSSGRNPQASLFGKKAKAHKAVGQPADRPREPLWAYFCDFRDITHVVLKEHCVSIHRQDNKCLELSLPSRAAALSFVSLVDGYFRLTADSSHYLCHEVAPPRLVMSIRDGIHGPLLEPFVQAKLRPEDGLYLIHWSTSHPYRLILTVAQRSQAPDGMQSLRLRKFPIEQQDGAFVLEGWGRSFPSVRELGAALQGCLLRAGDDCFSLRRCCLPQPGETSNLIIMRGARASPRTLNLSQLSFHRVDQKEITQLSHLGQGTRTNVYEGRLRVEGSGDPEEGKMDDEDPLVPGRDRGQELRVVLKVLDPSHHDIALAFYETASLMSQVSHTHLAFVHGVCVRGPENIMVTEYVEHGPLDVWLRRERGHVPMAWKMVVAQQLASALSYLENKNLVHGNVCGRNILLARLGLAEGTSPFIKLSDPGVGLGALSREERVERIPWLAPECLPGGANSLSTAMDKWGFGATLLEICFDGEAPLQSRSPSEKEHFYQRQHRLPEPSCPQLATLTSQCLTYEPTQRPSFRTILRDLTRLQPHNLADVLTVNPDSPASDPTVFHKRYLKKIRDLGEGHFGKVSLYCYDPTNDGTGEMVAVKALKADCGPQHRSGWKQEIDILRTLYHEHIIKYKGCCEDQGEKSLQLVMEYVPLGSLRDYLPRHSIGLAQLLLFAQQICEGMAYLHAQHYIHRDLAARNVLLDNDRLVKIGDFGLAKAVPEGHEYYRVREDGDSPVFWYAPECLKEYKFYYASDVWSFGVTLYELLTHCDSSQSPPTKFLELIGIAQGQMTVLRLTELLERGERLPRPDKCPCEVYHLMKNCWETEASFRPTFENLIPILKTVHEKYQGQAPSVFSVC
In words: In vitro activity assay of TYK2 kinase (radiometric, [γ-33P]-ATP). The conditions noted are these: recombinant human Tyk2, 40 min at room temperature. The format is biochemical. The procedure: as §1, §2
TYK2(h) was incubated with 8 mM MOPS pH 7.0, 0.2 mM EDTA, 250 μM GGMEDIYFEFMGGKKK (SEQ ID NO:4), 10 mM magnesium acetate and [γ-^33P]-ATP (the activity and concentration were tailored as required). The reaction was started by adding a Mg/ATP mixture, and terminated by adding 0.5% phosphoric acid after 40 min of incubation at room temperature. 10 μL of the reactant was then dotted on a P30 filter pad, washed three times with 0.425% phosphoric acid and once with methanol within 4 minutes, and dried, and scintillation counting was performed.
as §3

Test [4] addresses T4, JAK2(h) (Homo sapiens, UniProt O60674).
T4 construct: purchased Eurofins, UK
In words: In vitro activity assay of JAK2 kinase (radiometric, [γ-33P]-ATP). It is filed as biochemical. The conditions noted are these: recombinant human JAK2, 40 min at room temperature. As for the experimental part:
as §1, §2
JAK2(h) was incubated with 8 mM MOPS pH 7.0, 0.2 mM EDTA, 100 μM […] (SEQ ID NO: 2), 10 mM magnesium acetate and [γ-^33P]-ATP (the activity and concentration were tailored as required). The reaction was started by adding a Mg/ATP mixture, and terminated by adding 0.5% phosphoric acid after 40 min of incubation at room temperature. 10 μL of the reactant was then dotted on a P30 filter pad, washed three times with 0.425% phosphoric acid and once with methanol within 4 minutes, and dried, and scintillation counting was performed.
as §3

In test [5] the test system is collagen-induced arthritis (CIA). In words: In vivo efficacy study of collagen-induced arthritis (CIA) in rats. Further details: species or system Lewis rats. The conditions noted are these: 0.1 mg/kg, rat CIA. The procedure:
[table] The compounds of the present application were tested for their therapeutic effect on arthritis using a rat collagen-induced arthritis model. Lewis rats were immunized. The day of the first immunization was recorded as day 0, and the subsequent days were recorded in order. The Lewis rats were anesthetized with isoflurane and injected with 50 μL of prepared collagen emulsion (containing 200 μg of CII) subcutaneously in the tail (2-3 cm away from the base of the tail). On day 21, the same volume of the collagen emulsion was injected in the tail in the same manner. Rats in the normal group were not immunized. On day 27 of the modeling, the rats were divided into groups and administered corresponding test compounds. For example, the female Lewis rats were orally administered different doses (see Table 4-1 for specific doses) of a solution of test compound 4 in a mixed solvent [0.5% HPMC E5/0.5% PVP K30/0.2% SLS in water] twice a day (8 test animals in each dose group). During 14 consecutive days of administration, the states of the rats were observed, and the foot volume swellings were recorded and scored.

Where only a bound is given, the exact number is not on record here.

T4 sequence (O60674 whole entry): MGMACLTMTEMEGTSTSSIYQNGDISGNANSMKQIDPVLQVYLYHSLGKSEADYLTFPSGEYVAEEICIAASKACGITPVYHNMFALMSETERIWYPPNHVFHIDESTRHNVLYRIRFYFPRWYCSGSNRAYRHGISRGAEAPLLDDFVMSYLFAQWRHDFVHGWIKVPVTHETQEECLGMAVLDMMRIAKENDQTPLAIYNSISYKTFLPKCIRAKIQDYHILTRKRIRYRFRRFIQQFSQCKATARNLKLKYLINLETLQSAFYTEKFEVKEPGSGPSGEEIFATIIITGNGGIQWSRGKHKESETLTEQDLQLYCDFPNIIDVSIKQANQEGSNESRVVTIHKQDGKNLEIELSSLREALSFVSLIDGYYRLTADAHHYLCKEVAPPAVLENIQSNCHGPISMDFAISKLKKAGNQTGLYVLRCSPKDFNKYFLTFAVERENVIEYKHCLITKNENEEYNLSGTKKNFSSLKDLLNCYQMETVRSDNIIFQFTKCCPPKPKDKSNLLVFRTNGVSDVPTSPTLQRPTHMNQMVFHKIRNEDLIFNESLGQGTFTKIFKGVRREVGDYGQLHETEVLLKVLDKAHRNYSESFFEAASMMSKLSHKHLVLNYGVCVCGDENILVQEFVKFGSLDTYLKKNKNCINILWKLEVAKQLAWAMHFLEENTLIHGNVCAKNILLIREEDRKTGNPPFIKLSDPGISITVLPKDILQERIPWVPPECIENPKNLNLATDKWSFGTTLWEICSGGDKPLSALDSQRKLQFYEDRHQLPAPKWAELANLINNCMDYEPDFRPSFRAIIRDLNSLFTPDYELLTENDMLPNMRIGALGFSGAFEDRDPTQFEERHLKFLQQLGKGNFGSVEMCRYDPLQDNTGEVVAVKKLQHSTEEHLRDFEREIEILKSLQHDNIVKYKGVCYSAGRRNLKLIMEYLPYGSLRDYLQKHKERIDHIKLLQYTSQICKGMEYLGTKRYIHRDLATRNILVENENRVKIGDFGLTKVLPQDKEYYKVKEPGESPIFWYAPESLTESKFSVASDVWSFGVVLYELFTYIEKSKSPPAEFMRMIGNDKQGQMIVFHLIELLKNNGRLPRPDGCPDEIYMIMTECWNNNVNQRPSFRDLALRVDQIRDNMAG
T1 sequence (P23458 whole entry): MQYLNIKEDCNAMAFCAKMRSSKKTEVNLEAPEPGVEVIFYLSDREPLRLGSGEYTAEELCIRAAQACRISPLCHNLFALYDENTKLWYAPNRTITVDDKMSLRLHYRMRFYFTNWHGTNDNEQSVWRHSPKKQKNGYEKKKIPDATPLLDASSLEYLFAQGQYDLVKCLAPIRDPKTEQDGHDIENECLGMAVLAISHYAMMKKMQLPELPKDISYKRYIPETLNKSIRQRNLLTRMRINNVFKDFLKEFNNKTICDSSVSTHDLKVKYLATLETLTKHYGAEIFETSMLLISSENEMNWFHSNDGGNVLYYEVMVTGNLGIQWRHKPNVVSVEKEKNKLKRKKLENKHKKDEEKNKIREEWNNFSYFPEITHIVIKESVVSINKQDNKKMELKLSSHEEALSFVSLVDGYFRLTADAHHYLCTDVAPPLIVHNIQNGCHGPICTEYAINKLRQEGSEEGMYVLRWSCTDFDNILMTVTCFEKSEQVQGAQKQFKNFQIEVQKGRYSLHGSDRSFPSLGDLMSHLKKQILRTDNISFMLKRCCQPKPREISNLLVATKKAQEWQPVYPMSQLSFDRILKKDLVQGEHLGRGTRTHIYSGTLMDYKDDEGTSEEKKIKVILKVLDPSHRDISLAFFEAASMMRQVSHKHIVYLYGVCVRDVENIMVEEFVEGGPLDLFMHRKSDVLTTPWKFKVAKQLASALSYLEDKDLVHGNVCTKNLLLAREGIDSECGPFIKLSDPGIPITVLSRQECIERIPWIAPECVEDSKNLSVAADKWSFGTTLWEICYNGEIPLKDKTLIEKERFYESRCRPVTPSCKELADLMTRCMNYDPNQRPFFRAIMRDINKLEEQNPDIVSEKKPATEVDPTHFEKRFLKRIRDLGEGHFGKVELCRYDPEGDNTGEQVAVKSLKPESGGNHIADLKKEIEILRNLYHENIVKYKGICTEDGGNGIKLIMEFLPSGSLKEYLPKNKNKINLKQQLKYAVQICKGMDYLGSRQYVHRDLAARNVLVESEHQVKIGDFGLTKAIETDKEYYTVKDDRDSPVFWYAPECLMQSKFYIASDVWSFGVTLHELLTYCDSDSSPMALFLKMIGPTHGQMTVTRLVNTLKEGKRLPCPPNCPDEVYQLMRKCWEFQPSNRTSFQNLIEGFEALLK

Usually IC50 stands for the concentration that inhibits the measured activity by half. Turning to `Cc1nc2cnc3[nH]ccc3c2n1C1CCc2cc(C#N)nn2C1` (single isomer, unassigned) [Compound 2A], the IC50 in test [1] was less than 1 nM; in test [2], 25 nM; in test [3], 2 nM; in test [4] it was 2 nM.

Turning to `N#Cc1cc2n(n1)CC(n1c(C(F)(F)F)nc3cnc4[nH]ccc4c31)CC2` (single isomer, unassigned) [Compound 3A], the IC50 in test [1] worked out at 3 nM; in test [2] it was 217 nM; in test [3], 57 nM; in test [4] it was 62 nM.

Consider `C[C@@H](O)c1nc2cnc3[nH]ccc3c2n1[C@@H]1CCc2cc(C#N)nn2C1` [Compound 5], for which the IC50 in test [1] amounted to 9 nM; in test [2] it was 576 nM; in test [3], 231 nM; in test [4] it was 250 nM.

For the compound `COc1nc2cnc3[nH]ccc3c2n1[C@H]1CCc2cc(C#N)nn2C1` [Compound 6], the IC50 is 2.3 nM in test [1], 73.8 nM in test [2], 130 nM in test [3] and 70.2 nM in test [4].

Turning to `C[C@@H](O)c1nc2cnc3[nH]ccc3c2n1[C@H]1CCc2cc(C#N)nn2C1` [Compound 7], the 50% inhibitory concentration (IC50) in test [1] amounted to 0.3 nM; in test [2] it was 38.4 nM; in test [3], 12.4 nM; in test [4], 53.9 nM.

Turning to `C[C@@H]1C[C@H]2[C@@H]3CCC4=CC(=O)C=C[C@]4(C)[C@@]3(F)[C@@H](O)C[C@]2(C)[C@@]1(O)C(=O)CO` [Dexamethasone, reference compound], in test [5], the “Clinical score (on day 14 of administration) Mean ± SEM” value came out at 0.00 ± 0.00 and the Foot volume (mL, on day 14 of administration) Mean ± SEM was 1.22 ± 0.042 mL.
